Test results taken from ChEMBL document CHEMBL1147588, “Synthesis and in vitro cytotoxicity of 5-substituted 2-cyanoimino-4-imidazodinone and 2-cyanoimino-4-pyrimidinone derivatives” (Bioorg Med Chem Lett, 2004).

Assays:
WI-38 = assay: Cytotoxic activity against WI38 normal fibroblast cell line; na=Not active; type: functional, cell-based, Homo sapiens
NUGC = assay: Cytotoxic activity against NUGC gastric cancer cell line; type: functional, cell-based; conditions: Homo sapiens, Stomach
HA22T cell line [1] = assay: Cytotoxic activity against HA22T liver cancer cell line; type: functional, cell-based; conditions: Homo sapiens
HONE1 cell line = assay: Cytotoxic activity against HONE1 nasopharyngeal carcinoma cell line; type: functional, cell-based; conditions: Homo sapiens
HepG2 = assay: Cytotoxic activity against HepG2 liver cancer cell line; type: functional, cell-based; conditions: Homo sapiens
DLD-1 = assay: Cytotoxic activity against DLD1 colon cancer cell line; type: functional, cell-based; conditions: Homo sapiens
MCF7 [2] = assay: Cytotoxic activity against MCF breast cancer cell line; type: functional, cell-based; conditions: Homo sapiens
HA22T cell line [3] = assay: Cytotoxic activity against HA22T liver cancer cell line; na=Not active; type: functional, cell-based, Homo sapiens
MCF7 [4] = assay: Cytotoxic activity against MCF breast cancer cell line; na=Not active; type: functional, cell-based, Homo sapiens

SMILES	IC50 (WI-38)	IC50 (NUGC) [nM]	IC50 (HA22T cell line [1]) [nM]	IC50 (HONE1 cell line) [nM]	IC50 (HepG2) [nM]	IC50 (DLD-1) [nM]	IC50 (MCF7 [2]) [nM]	IC50 (HA22T cell line [3])	IC50 (MCF7 [4])
N#C/N=C1\N(CCCCCCCOc2ccc(Cl)cc2)C(=O)C(c2ccccc2)N1c1ccncc1 (configuration not stated)	Not Active	3350	831	398	380	290	1170	–	–
N#C/N=C1\N(CCCCCCOc2ccc(Cl)cc2)C(=O)C(c2ccccc2)N1c1ccncc1 (configuration not stated)	Not Active	3340	526	337	44	37	1130	–	–
CC1C(=O)N(CCCCCCOc2ccc(Cl)cc2)/C(=N\C#N)N1c1ccncc1 (configuration not stated)	Not Active	214	382	303	282	333	270	–	–
CCC1C(=O)N(CCCCCCOc2ccc(Cl)cc2)/C(=N\C#N)N1c1ccncc1 (configuration not stated)	Not Active	406	5130	3870	4350	3560	6910	–	–
CC1C(=O)N(CCCCCOc2ccc(Cl)cc2)/C(=N\C#N)N1c1ccncc1 (configuration not stated)	Not Active	1780	–	3680	4090	4110	9260	Not Active	–
N#C/N=C1\N(CCCCCOc2ccc(Cl)cc2)C(=O)CCN1c1ccncc1	Not Active	3120	–	3450	2830	6740	5460	Not Active	–
N#C/N=C1\N(CCCCCOc2ccc(Cl)cc2)C(=O)C(c2ccccc2)N1c1ccncc1 (configuration not stated)	Not Active	3450	3590	373	415	337	1000	–	–
CC1C(=O)N(CCCCCCCOc2ccc(Cl)cc2)/C(=N\C#N)N1c1ccncc1 (configuration not stated)	Not Active	1240	688	371	359	370	460	–	–
N#C/N=C1\N(CCCCCCCOc2ccc(Cl)cc2)C(=O)CN1c1ccncc1	Not Active	926	3500	3240	2740	3340	815	–	–
N#C/N=C1\N(CCCCCCOc2ccc(Cl)cc2)C(=O)CCN1c1ccncc1	Not Active	288	3040	577	344	565	454	–	–
N#C/N=C1\N(CCCCCCOc2ccc(Cl)cc2)C(=O)CN1c1ccncc1	Not Active	386	3860	2960	392	3440	443	–	–
N#C/N=C1\N(CCCCCCCOc2ccc(Cl)cc2)C(=O)CCN1c1ccncc1	Not Active	1100	7560	3440	4000	3200	6840	–	–
N#C/N=C1\N(CCCCCOc2ccc(Cl)cc2)C(=O)CN1c1ccncc1	Not Active	2760	8970	3400	4200	3800	5360	–	–
CCC1C(=O)N(CCCCCCCOc2ccc(Cl)cc2)/C(=N\C#N)N1c1ccncc1 (configuration not stated)	Not Active	1280	6050	3230	3450	3530	4540	–	–
CCC1C(=O)N(CCCCCOc2ccc(Cl)cc2)/C(=N\C#N)N1c1ccncc1 (configuration not stated)	Not Active	3040	–	4830	4320	4080	–	Not Active	Not Active
N#CN=C(NCCCCCCOc1ccc(Cl)cc1)Nc1ccncc1 [CHS-828]	Not Active	25	2070	15	1240	2320	18	–	–
